In patent publication US20260325655A1, “DECREASING THE INTRINSICALLY DISORDERED PROTEIN ALPHA-SYNUCLEIN’S LEVELS BY TARGETING ITS STRUCTURED MRNA WITH A RIBONUCLEASE TARGETING CHIMERA” (University of Florida Research Foundation, Incorporated, priority 2023, published 2026):

Tests used:
Format in all cases: cell-based, human
[1] = test system: control luciferase reporter lacking an IRE; assay: control luciferase reporter lacking an IRE; details: reporter lacks IRE / SNCA-UTR sequence
Description: (§1) Plasmid constructs and establishment of reporter gene overexpressing cells. Construction of pIRES-Luc-EGFP-puro plasmid and pCDH-α-syn-5′-UTR-Luc-EGFP-puro plasmid used in 5′ UTR-luciferase-based selectivity assay were previously described.^4 Briefly, In-Fusion PCR cloning system (Takara Bio, Mountain View, CA, USA) was used for all plasmid constructions per the manufacturer's instructions. To ensure sequence accuracy, all plasmids generated in this study were confirmed by sequencing.
(§2) Luciferase assay. The effect of compounds on translation of SNCA IRE-containing transcript was measured by using a luciferase reporter assay. HeLa cells (~60% confluency) were transfected with plasmids (2 μg per 60 mm dish) by using JetPrime (Polyplus Transfection) according to the manufacturer's recommended procedures. Approximately 16 h after transfection, the transfection cocktail was removed, and the cells were trypsinized and seeded to 96-well plates (8,000 cells per well). After 6 h, cells were treated as described in Cell Culture. To measure the luciferase signals, the cells were then washed with 1× DPBS, and luciferase activity in each well was measured by using the ONE-Glo Luciferase Assay System (Promega) per the manufacturer's instructions. Luminescence from firefly luciferase reaction was measured using a Biomek FLx800 plate reader.

[2] = test system: SNCA mRNA; assay: SNCA mRNA cleavage after siRNA knock-down of RNase L in SH-SY5Y cells
Protocol: (§3) RNA extraction and reverse transcription-quantitative polymerase chain reaction (RT-qPCR). Total RNA was extracted from cells using a Quick-RNA MiniPrep Kit (Zymo Research) per the manufacturer's protocol including DNase treatment. For each sample, 200 ng of RNA was reverse transcribed into cDNA by using a qScript cDNA Synthesis Kit (QuantaBio) according to the manufacturer's instructions. To assess the relative mRNA levels, RT-qPCR was performed in triplicate using SYBR Green PCR mater mix (Applied Biosystems) with a Quant Studio 5 Real-Time PCR system. The relative levels of mRNA were calculated by using the ΔΔCt method as previously described.^8
Transfection of siRNAs. The siRNAs were purchased from commercial sources as listed in General information. The α-synuclein siRNA (final concentration of 200 nM) or RNase L siRNA (final concentration of 50 nM) were transfected into SH-SY5Y cells (at ~60% confluency in 12-well plates) by using the Lipofectamine RNAiMax (Life technologies) per manufacturer's protocol.

[3] = test system: PD patient-derived neurons; assay: total RNA-seq in PD patient-derived dopaminergic neurons
Protocol: RNA-seq analysis. Total RNA was quantified using the Qubit 2.0 Fluorometer (Invitrogen) and an Agilent 2100 Bioanalyzer RNA nano chip. Samples with RIN>9.0 were proceeded to library preparation using NEBNext Ultra II Directional RNA Kit (Cat. #E7760, NEB) following manufacture's protocol. Briefly, 200 ng of total RNA was depleted of ribosomal RNA using the NEBNext rRNA Depletion Module. The product was chemically fragmented using NEBNext Magnesium RNA Fragmentation Module (E6150S, NEB) the at 94° C. for 15 min. First-strand synthesis was performed with random primers, and second strand was synthesized with dUTP in place of dTTP. After end repair and 3′ adenylation, the cDNA was ligated with adaptors and then treated with USER enzyme (Uracil-specific excision reagent). The product was PCR amplified with Illumina-barcoded primers to generate the cDNA libraries. The final libraries were analyzed on the bioanalyzer DNA chips, pooled in equimolar ratios, and loaded onto the NextSeq 500 v2.5 flow cell and sequenced with 2×40 bp paired-end chemistry. The raw data were aligned to the human genome using STAR.^11 Read counts were extracted using featureCounts,^12 and the differential gene analysis was performed using Deseq2.^13
Dopamine neuron induction. For dopamine neuronal induction,^15,16 the dual-SMAD inhibition method^17 was used for floor plate (FP)-based midbrain dopamine (DA) neuron induction with modifications. Prior to differentiation, Matrigel matrix (BD) was thawed at 4° C. overnight or on ice until it is dissolved. Matrigel coated 6-well plates were prepared according to manufacturer's instructions and incubated at 37° C. for at least 1 h before use. iPSCs were dissociated with Accutase (STEMCELL Technologies) and plated (3.5×10^5-4×10^5 cells per cm^2) into a new Matrigel coated plate and grown in mTeSR medium (STEMCELL Technologies) with StemBeads FGF2 (StemCultures) and ROCK inhibitor Y27632 (5 μM, Tocris). After 24 to 48 h, when the cells reached 100% confluency, the differentiation protocol was initiated by feeding the cells with DMEM containing 15% KnockOut Serum Replacement (KSR, Gibco), 2 mM L-glutamine (L-Glut) and 10 μM β-mercaptoethanol for 11 days.
Floor Plate (FP) induction protocol was followed based on timed exposure to BMP inhibitor LDN193189 (100 nM, PeproTech), ALK inhibitor SB431542 (10 μM, Tocris), recombinant mouse sonic hedgehog N-terminus SHH C25II (100 ng/ml, R&D), Smoothened agonist Purmorphamine (2 μM, PeproTech) and GSK3 inhibitor CHIR99021 (CHIR; 3 μM, PeproTech). KSR medium was gradually shifted to N2 medium (Neurobasal/N2 with B27 Plus Supplement; Gibco) starting on day 5 of differentiation as described previously.^18 On day 11, the medium was changed to Neurobasal/B27/L-Glut containing medium (NB/B27; Gibco) supplemented with CHIR (until day 13) and with BDNF (20 ng/ml; PeproTech), ascorbic acid (0.2 mM), GDNF (20 ng/ml; PeproTech), dibutyryl cAMP (0.5 mM; PeproTech), TGFβ3 (1 ng/ml; PeproTech), and γ-secretase inhibitor DAPT (10 μM; PeproTech) for 9 days. On Day 20 and Day 30 (midbrain DA neuron precursor stages), cells were dissociated using Accutase and replated at high cell density (8× 10^5 cells per cm^2) in dishes pre-coated with 15 μg/ml polyornithine/1 μg/ml laminin/2 μg/ml fibronectin in differentiation medium (NB/B27+BDNF, ascorbic acid, GDNF, dbcAMP, TGFβ3 and DAPT). […]

[4] = test system: APP mRNA; assay: APP mRNA in SH-SY5Y cells by RT-qPCR
Protocol: as §3

[5] = test system: SNCA IRE-luciferase reporter; assay: wash-out experiment using the luciferase reporter assay; details: 16 h after compound removal; 2 μM
Description: as §1, §2

[6] = among 461 genes significantly downregulated in PD neurons
[7] = among 976 genes significantly upregulated in PD neurons

| inhibition in the control luciferase reporter [1] | hexokinase 2 (HK2) expression ([3]; PD patient-derived neurons, only gene besides SNCA) | SMILES | effect of scrambled control siRNA on Syn-RiboTAC activity ([2]; scrambled control siRNA) | effect on SNCA mRNA after RNase L knock-down ([2]; siRNA pool against RNase L) | number of PD-downregulated genes improved [3, 6] | percent of PD-downregulated genes improved [3, 6] | number of PD-upregulated genes improved (decreased) [3, 7] | percent of PD-upregulated genes improved (decreased) [3, 7] | effect on APP mRNA level [4] | activity after wash-out (in words) [5] |
| --- | --- | --- | --- | --- | --- | --- | --- | --- | --- | --- |
| Neither compound showed inhibition | significantly decreased | CCOC(=O)C1=C(Nc2ccccc2)S/C(=C\c2ccc(OCCOCCOCCOCCNC(=O)CCCOc3ccc(-n4c(SCC(=O)Nc5ccc6cn[nH]c6c5)nnc4-c4ccncc4)cc3)c(O)c2)C1=O [Syn-RiboTAC] | No significant effect on activity | ablated the effect of Syn-RiboTAC on SNCA mRNA | 223 | 48% | 488 | 50% | None of the three transcripts was affected | – |
| – | – | O=C(CSc1nnc(-c2ccncc2)n1-c1ccc(Br)cc1)Nc1ccc2cn[nH]c2c1 [Synucleozid-2.0] | – | – | – | – | – | – | – | inactive |
